From ChEMBL document CHEMBL2021846, “Symplocin A, a linear peptide from the Bahamian cyanobacterium Symploca sp. Configurational analysis of N,N-dimethylamino acids by chiral-phase HPLC of naphthacyl esters” (J Nat Prod, 2012)
Active and inactive are the calls of the source. No cut-off for these calls is given here.

Experiments:
HCT-116 = assay: Cytotoxicity against human HCT116 cells; format: functional, cell-based
Cathepsin E = biological target: T1, Cathepsin E (Homo sapiens, UniProt P14091); assay: Inhibition of cathepsin E
T1 sequence (P14091 whole entry): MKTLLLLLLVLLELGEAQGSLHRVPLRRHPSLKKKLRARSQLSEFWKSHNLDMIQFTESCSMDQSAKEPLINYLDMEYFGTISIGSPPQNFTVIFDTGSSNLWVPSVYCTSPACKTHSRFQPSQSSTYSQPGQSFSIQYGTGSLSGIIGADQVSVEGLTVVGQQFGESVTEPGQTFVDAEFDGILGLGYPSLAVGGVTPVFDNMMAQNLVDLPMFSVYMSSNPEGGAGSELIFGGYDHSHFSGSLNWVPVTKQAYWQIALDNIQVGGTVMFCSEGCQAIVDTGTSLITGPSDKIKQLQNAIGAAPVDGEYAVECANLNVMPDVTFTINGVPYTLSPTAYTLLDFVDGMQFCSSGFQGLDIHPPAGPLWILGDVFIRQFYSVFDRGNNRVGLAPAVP

Compound: CC[C@@H](C)[C@H](C(=O)O[C@@H](C(=O)N[C@@H](Cc1ccc(O)cc1)C(=O)N[C@@H](CO)C(=O)N[C@@H](CC(C)C)[C@H](O)CC(=O)N[C@H](C(=O)NCC(=O)N(C)[C@H](Cc1ccccc1)C(=O)N1CCC[C@H]1C(=O)OC)C(C)C)C(C)C)N(C)C [SYMPLOCIN A]
- Activity (HCT-116): inactive
- IC50 (Cathepsin E): 0.3 nM
